Laboratory results published in US20080306067A1, “Modulators of Chemokine Receptor Activity” (priority 2005, published 2008).

Columns and labels:
human CCR-3 = biological target: T1, human CCR-3 (Homo sapiens, UniProt P51677); assay: binding of [125I]-human eotaxin to human CCR-3 (SPA, membranes of RBL-2H3 cells expressing CCR3); settings: 4 hours at room temperature, read-out: IC50 (inhibition of binding of eotaxin to CCR-3)
T1 construct: expressed in transfected cells; membrane preparation
T1 sequence (P51677 1-355): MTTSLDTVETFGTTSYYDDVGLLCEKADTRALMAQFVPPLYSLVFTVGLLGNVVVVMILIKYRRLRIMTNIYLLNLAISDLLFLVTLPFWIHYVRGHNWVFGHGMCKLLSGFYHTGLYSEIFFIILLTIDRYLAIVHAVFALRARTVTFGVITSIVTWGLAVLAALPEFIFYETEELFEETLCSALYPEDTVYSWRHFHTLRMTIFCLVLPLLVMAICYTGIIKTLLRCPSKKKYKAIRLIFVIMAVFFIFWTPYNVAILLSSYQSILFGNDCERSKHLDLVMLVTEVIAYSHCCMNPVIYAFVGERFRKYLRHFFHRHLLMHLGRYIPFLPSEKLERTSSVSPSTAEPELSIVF
Description: In this assay the effect of the compounds of the present invention on the binding of human eotaxin to human CCR-3 is determined. Recombinant cells expressing human CCR-3 are captured by wheatgerm agglutinin (WGA) polyvinyltoluidene (PVT) SPA beads (available from Amersham), through a specific interaction between the WGA and carbohydrate residues of glycoproteins on the surface of the cells. [^125I]-human eotaxin (available from Amersham) binds specifically to CCR-3 receptors bringing the [^125I]-human eotaxin in close proximity to the SPA beads. Emitted â-particles from the [^125I]-human eotaxin excite, by its proximity, the fluorophore in the beads and produce light.
Preparation of Assay Buffer. 5.96 g HEPES and 7.0 g sodium chloride are dissolved in distilled H2O and 1M aq. CaCl2 (1 ml) and 1M aq. MgCl2 (5 ml) are added. The pH is adjusted to 7.6 with NaOH and the solution made to a final volume of 1 L using distilled H2O. 5 g of bovine serum albumin and 0.1 g NaN3 are dissolved in the solution and the resulting buffer stored at 4° C. […]
The assay is performed in a final volume of 250 μl per well of an Optiplate™ microplate (ex Canberra Packard). […] The resulting scintillations are counted using a Canberra Packard TopCount™ scintillation counter, each well being counted for 1 minute. […]

[1] = biological target: alpha-1 adrenergic receptor; assay: alpha-1 adrenergic receptor radioligand binding assay ([125I]-HEAT, rat cerebral cortex membranes); settings: radioligand used at 40 pM
Description: The inhibitory properties of the compounds of the present invention on binding of the alpha-1 adrenergic receptor can be determined in the following assay:
Cerebral cortices from male Sprague-Dawley rats (175-200 g) are dissected and homogenised in 10 volumes of ice cold 0.32 M sucrose (containing 1 mM MgCl2 dihydrate and 1 mM K2HPO4) with a glass/Teflon homogeniser. The membranes are centrifuged at 1000×g for 15 minutes, the pellet discarded and the centrifugation repeated. The supernatants are pooled and centrifuged at 18,000×g for 15 minutes. The pellet is osmotically shocked in 10 volumes of H2O and kept on ice for 30 minutes. The suspension is centrifuged at 39,000×g for 20 minutes, resuspended in Krebs-Henseleit buffer pH 7.4 (1.17 mM MgSO4 anhydrous, 4.69 mM KCl, 0.7 mM K2HPO4 anhydrous, 0.11 M NaCl, 11 mM D-glucose and 25 mM NaHCO3) containing 20 mM Tris, and kept for 2 days at −20° C. […]
The resulting membranes are subjected to a radioligand binding assay. […] Following drying of the plates for 3 h. at 50° C., 40 μl of Microscint 20 is added to each well, the plates incubated at room temperature for a further 20 minutes and the retained radioactivity quantified in a Packard TopCount NXT™ scintillation counter. […]

Row | IC50 (human CCR-3) [nM] | Kd [1] [nM] | SMILES
1 | ~6 | – | CN(CCCCNC(=O)Nc1cccc(-c2nnnn2C)c1)Cc1ccc(F)cc1 [Example 1, 1-{4-[(4-Fluorobenzyl)-methylamino]butyl}-3-[3-(1-methyl-1H-tetrazol-5-yl)phenyl]-urea]
2 | – | 0.0589 ± 0.0187 | O=C1c2ccccc2CCC1CNCCc1ccc(O)c(I)c1 (centres unmarked) [[^125I]-HEAT]
